Reference: US20130303507A1 (Novartis AG, priority 2011, published 2013)
“And” between values parts separate entries of the source, which are not always exact repeats. Identical values can stand only once. Like-named read-outs stand apart in the source and are kept apart here.

What was measured:
neointima formation = conditions: in rats; cited from earlier work
Cdk9/cyclinT1 = Cdk9/cyclinT1 (Homo sapiens, UniProt P50750); experiment: Cdk9/cyclinT1 Alpha Screen protocol; format: biochemical; parameters: Full length wild type Cdk9/cyclin T1 is purchased from Invitrogen; purchased Invitrogen PV4131; conditions: individual determinations, read-out: CDK9_cyclinT1_AS2_IC50
Method: Cdk9/cyclinT1 Alpha Screen Protocol
Full length wild type Cdk9/cyclin T1 is purchased from Invitrogen, cat#PV4131. […] The cdk7tide peptide substrate, biotin-[…] -OH, is a custom synthesis purchased from the Tufts University Core Facility. The final concentration of cdk7tide peptide substrate is 200 nM. […] Phospho-Rpb1 CTD (ser2/5) substrate antibody is purchased from Cell Signaling Technology. The final concentration of antibody is 0.67 ug/ml. The Alpha Screen Protein A detection kit containing donor and acceptor beads is purchased from PerkinElmer Life Sciences. The final concentration of both donor and acceptor beads is 15 ug/ml. Alpha Screen is used for detection. […] The biotinylated-cdk7tide peptide substrate is bound to the streptavidin coated donor bead. The antibody is bound to the protein A coated acceptor bead. The antibody will bind to the phosphorylated form of the biotinylated-cdk7tide peptide substrate, bringing the donor and acceptor beads into close proximity. Laser irradiation of the donor bead at 680 nm generates a flow of short-lived singlet oxygen molecules. When the donor and acceptor beads are in close proximity, the reactive oxygen generated by the irradiation of the donor beads initiates a luminescence/fluorescence cascade in the acceptor beads. This process leads to a highly amplified signal with output in the 530-620 nm range. Assays are carried out in 50 mM Hepes, pH=7.5, 10 mM MgCl2, 0.1% Bovine Serum Albumin, 0.01% Tween-20, 1 mM Dithiothreitol, 2.5% Dimethyl Sulfoxide. Stop and detection steps are combined using 50 mM Hepes, pH=7.5, 18 mM EDTA, 0.1% Bovine Serum Albumin, 0.01% Tween-20.

Cdk9/cyclinT1, sequence (P50750 whole entry): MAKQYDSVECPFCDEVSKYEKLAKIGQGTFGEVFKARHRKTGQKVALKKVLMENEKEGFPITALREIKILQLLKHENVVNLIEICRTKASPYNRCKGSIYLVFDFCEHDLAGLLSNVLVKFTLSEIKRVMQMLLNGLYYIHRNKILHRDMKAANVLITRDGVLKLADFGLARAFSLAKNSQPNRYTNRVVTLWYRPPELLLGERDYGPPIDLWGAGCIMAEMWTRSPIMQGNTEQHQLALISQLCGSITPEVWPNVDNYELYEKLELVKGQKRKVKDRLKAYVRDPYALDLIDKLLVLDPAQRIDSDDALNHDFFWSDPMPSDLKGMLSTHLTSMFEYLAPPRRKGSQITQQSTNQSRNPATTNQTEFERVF
Cdk9/cyclinT1, sequence (O60563 whole entry partner): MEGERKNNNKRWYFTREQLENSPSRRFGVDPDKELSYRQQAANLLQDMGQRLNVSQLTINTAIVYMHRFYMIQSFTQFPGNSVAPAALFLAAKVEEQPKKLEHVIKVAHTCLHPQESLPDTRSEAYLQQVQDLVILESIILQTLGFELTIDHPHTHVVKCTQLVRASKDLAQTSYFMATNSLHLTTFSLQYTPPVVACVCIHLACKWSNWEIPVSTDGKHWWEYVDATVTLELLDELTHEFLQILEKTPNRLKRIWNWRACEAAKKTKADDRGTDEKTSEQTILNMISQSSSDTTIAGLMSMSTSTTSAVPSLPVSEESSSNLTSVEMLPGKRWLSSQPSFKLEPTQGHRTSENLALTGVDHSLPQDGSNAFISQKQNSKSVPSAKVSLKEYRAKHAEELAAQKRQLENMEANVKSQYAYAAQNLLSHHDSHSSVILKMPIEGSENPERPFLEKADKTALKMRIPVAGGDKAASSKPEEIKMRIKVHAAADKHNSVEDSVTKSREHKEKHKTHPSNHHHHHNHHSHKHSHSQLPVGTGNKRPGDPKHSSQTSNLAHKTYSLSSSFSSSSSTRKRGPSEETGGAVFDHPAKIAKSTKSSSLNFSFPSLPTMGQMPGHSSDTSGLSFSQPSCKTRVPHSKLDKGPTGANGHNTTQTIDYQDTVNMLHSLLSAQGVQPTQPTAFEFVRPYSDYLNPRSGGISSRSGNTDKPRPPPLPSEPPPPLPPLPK

Structure (SMILES) | IC50 (Cdk9/cyclinT1; neutral species) [nM] | IC50 (Cdk9/cyclinT1; TFA salt) | inhibition of neointima formation (neointima formation)
COc1ccc(CNc2nc(N(CCO)CCO)nc3c2ncn3C(C)C)cc1 [CVT-313] | – | – | greater than 80%
COC[C@@H](C)N[C@H]1CC[C@H](Nc2cc(-c3cccc(NCC4(C#N)CCOCC4)n3)c(F)cn2)CC1 [Compound 519] | 0.235 | 0.252 nM and 0.218 nM and 0.232 nM and 0.38 nM | –
N#CC1(CNc2cccc(-c3cc(N[C@H]4CC[C@H](N[C@@H]5CCCC[C@H]5O)CC4)ncc3Cl)n2)CCOCC1 [Compound 525] | – | 0.542 nM | –
CO[C@H]1CCN([C@H]2CC[C@@H](Nc3cc(-c4cccc(NCC5(C#N)CCOCC5)n4)c(Cl)cn3)CC2)C1 [Compound 513] | 5.39 | 26.1 nM | –
N#CC1(CNc2cccc(-c3cc(N[C@H]4CC[C@@H](NC5CC(F)(F)C5)CC4)ncc3Cl)n2)CCOCC1 [Compound 564] | 9.54 | – | –
N#CC1(CNc2cccc(-c3cc(N[C@H]4CC[C@H](NC[C@@H](O)CF)CC4)ncc3Cl)n2)CCOCC1 [Compound 544] | – | 0.2 nM | –
COC[C@H](C)N[C@H]1CC[C@H](Nc2cc(-c3cccc(NCC4(C#N)CC4)n3)c(F)cn2)CC1 [Compound 587] | 1 | – | –
N#CC1(CNc2cccc(-c3cc(N[C@H]4CC[C@H](N[C@H]5CCCC[C@@H]5O)CC4)ncc3Cl)n2)CCOCC1 [Compound 523] | – | 0.33 nM | –
N#CC1(CNc2cccc(-c3cc(N[C@H]4CC[C@H](NCCCO)CC4)ncc3Cl)n2)CCOCC1 [Compound 571] | 0.397 | – | –
[2H]C(C)(COC)N[C@H]1CC[C@H](Nc2cc(-c3cccc(NCC4(C#N)CCOCC4)n3)c(Cl)cn2)CC1 (stereo partly drawn) [Compound 594] | < 1 | – | –

Second part, led by results:

IC50 (Cdk9/cyclinT1; neutral species) [nM] | IC50 (Cdk9/cyclinT1; TFA salt) | Structure (SMILES) | inhibition of neointima formation (neointima formation)
55.6 | – | N#CC1(COc2cncc(-c3cc(N[C@H]4CC[C@@H](N5CCCOCC5)CC4)ncc3Cl)n2)CCOCC1 [Compound 549] | –
1 | – | COC[C@H](C)N[C@H]1CC[C@H](Nc2cc(-c3cncc(OCC4(C#N)CCOCC4)n3)c(Cl)cn2)CC1 [Compound 586] | –
0.215 | – | N#CC1(COc2cncc(-c3cc(N[C@H]4CC[C@H](NC[C@@H](O)C(F)(F)F)CC4)ncc3Cl)n2)CCOCC1 [Compound 575] | –
1 | – | [2H]C([2H])([2H])OC[C@H](C)N[C@H]1CC[C@H](Nc2cc(-c3cncc(OCC4(C#N)CCOCC4)n3)c(Cl)cn2)CC1 [Compound 598] | –
5 | – | C[C@H](CO)N[C@H]1CC[C@H](Nc2cc(-c3cncc(OCC4(C#N)CCOCC4)n3)c(Cl)cn2)CC1 [Compound 590] | –
1.34 | – | N#CC1(CNc2cccc(-c3cc(N[C@H]4CC[C@H](N5CCC6(COC6)C5)CC4)ncc3Cl)n2)CCOCC1 [Compound 570] | –
